The values that follow come from ChEMBL document CHEMBL5661973, “BI 2536, a potent and selective inhibitor of polo-like kinase 1, inhibits tumor growth in vivo” (Curr Biol, 2007).

Molecules are shown by their SMILES. Active and inactive are the calls of the source. The rule behind the calls is not given here.

One test relates to HeLa S3. In words: Antiproliferative activity against human HeLa S3 cells assessed as inhibition in cell growth incubated for 72 hrs by Alamar Blue dye based fluorescence spectrophotometric analysis. The test is classed as functional. The settings on record: HeLa S3, 72 h. (Alamar Blue is a resazurin reagent that responds to reducing activity.)
Test [1] has as its system HeLa. In words: Antimitotic activity against human HeLa cells assessed as accumulation multipolar spindles at 100 to 2500 nM incubated for 2 hrs by immunofluorescence analysis. The test is classed as functional, cell-based. To be noted: dose 100-2500 nM.
For test [2], the system named is HeLa. In words: Antimitotic activity against human HeLa cells assessed as monopolar asters at 100 to 2500 nM incubated for 2 hrs by immunofluorescence analysis. The test is classed as functional, cell-based. To be noted: dose 100-2500 nM.
Test [3] deals with HeLa. Put plainly: Antimitotic activity against human HeLa cells assessed as centrosomal gamma tubulin recruitment at 100 to 2500 nM incubated for 2 hrs by immunofluorescence analysis. The test is classed as functional, cell-based. The settings on record: dose 100-2500 nM.
Test [4] has as its system HeLa. Put plainly: Antimitotic activity against human HeLa cells assessed as accumulation in depolymerization of microtubules in interphase cells at 2500 nM incubated for 2 hrs by immunostaining. The test is classed as functional, cell-based.

The term EC50 denotes the concentration giving half of the maximal effect.

Regarding `COc1cc(OC)c(/C=C/S(=O)(=O)Cc2ccc(OC)c(NCC(=O)O)c2)c(OC)c1` [RIGOSERTIB], in the test with HeLa S3, the EC50 worked out at 45 nM. Further, the result in the test on HeLa [1], in the test on HeLa [3] and in the test with HeLa [4] was Active. Besides, in the test on HeLa [2], the result was inactive.
